Data published in US20230083717A1, “METHODS AND COMPOSITIONS FOR PROMOTING ADIPOCYTE BEIGING” (Flagship Pioneering Innovations VI, LLC, priority 2021, published 2023).

Tested on: UCP1
Test: in vivo assay of induction of beige adipocytes in visceral and subcutaneous fat depots
Conditions: 1 mg/kg intraperitoneal, C57Bl6/J mice, vs control mice
Experimental: An in vivo assay of induction of beige adipocytes in visceral and subcutaneous fat depots was established using the β3-receptor agonist CL316243. 8-week old male C57Bl6/J mice were dosed with 1 mg/kg CL316243 with intraperitoneal injections, either every day for 1 week or every other day for two weeks. The vehicle was used as a negative control. Following the dosage administration, the mice were sacrificed, and epididymal (visceral) and inguinal (subcutaneous) fat was excised. The expression of UCP1 was assessed in the excised epididymal (visceral) and inguinal (subcutaneous) fat, by western blot and immunohistochemistry. […] The adipose tissue cells in epididymal (visceral) and inguinal (subcutaneous) fat from CL 316234 treated mice were also smaller compared to the cells from control mice (FIG. 3A).

SMILES: C[C@H](Cc1ccc2c(c1)OC(C(=O)O)(C(=O)O)O2)NC[C@H](O)c1cccc(Cl)c1 [CL 316234]
- expression of UCP1 by immunohistochemistry in epididymal (visceral) and inguinal (subcutaneous) fat: increased expression of UCP1
- expression of UCP1 by western blot in inguinal and epididymal fat: increased expression of UCP1
- size of adipose tissue cells in epididymal and inguinal fat: smaller
